Test results from US12180174B2, “A2-73 crystalline polymorph compositions of matter and methods of use thereof” (ANAVEX LIFE SCIENCES CORP., priority 2018, dated 2024).

Columns and labels:
[1] = test system: human A[342-expressing worms; assay: Thioflavine staining of Abeta42 aggregates in worms; format: in vivo, C. elegans; conditions: 80 μM, nine consecutive days; vs M9 medium control
Description: This encouraged the inventors to further look into the functional consequences of autophagy induction, focusing on the impact of the degradative pathway on proteostasis in vivo. Therefore, human A[342-expressing worms characterized by a time-dependent paralysis were employed, due to the accumulation of A[342 oligomers and high molecular weight aggregates in body wall muscle cells; it is stressed here that A[342-expressing worms are not considered as a model for AD, but rather as an experimental model for general proteostasis stress and proteotoxicity, where protein aggregation in muscle cells leads do a clear-cut phenotype (here, paralysis). A1342 protein aggregates were stained in situ with thioflavine. […] The accumulation of A[342 aggregates in the muscle cells is known to lead to an enhanced paralysis of the worms over time. […] C. elegans were treated with the compound (or M9 buffer as control) up to 12 days and paralysis was quantified daily. […]
For analysis of paralysis rate, synchronous CL2006 nematodes were cultivated at 15° C. on plates seeded with HB101 E. coli re-suspended in M9 (control) or 100 μM and 50 μM ANAVEX2-73. […] Worms were mounted on 2% agar pads on a glass slide and confocal fluorescence microscopical analyses were performed with the LSM 710 (Zeiss, Oberkochen) laser scanning microscope.

[2] = test system: AD; conditions: Phase 2a trial of patients; cited from earlier work
[3] = target: Sig-1 R (Homo sapiens, UniProt Q99720); conditions: cited from earlier work
Chain of Sig-1 R (Q99720 whole entry, species assumed): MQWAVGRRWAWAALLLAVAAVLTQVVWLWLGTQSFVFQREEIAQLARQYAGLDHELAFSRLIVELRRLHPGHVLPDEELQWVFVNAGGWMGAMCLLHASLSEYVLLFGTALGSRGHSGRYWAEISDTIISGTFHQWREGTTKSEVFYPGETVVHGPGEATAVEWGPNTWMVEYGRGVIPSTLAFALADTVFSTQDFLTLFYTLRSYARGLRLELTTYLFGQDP

[4] = test system: ULK1; assay: ULK1 serine 555 phosphorylation, Western blot; format: cell-based, human; conditions: 1 μM; HeLa cells
Description: Activation of the serine/threonine protein kinase ULK1 (unc-51-like kinase 1) via phosphorylation at serine 555 indicates stimulation of the canonical autophagy pathway. […] It has to be mentioned that this activating ULK1 phosphorylation can be inhibited by mTOR as well as stimulated via AMPK kinase. Both are basal physiological sensors of nutritional conditions and key signal transducers of canonical autophagy stimulation. ULK1 is in fact the signal mediating the induction of the formation of the phagophore during the autophagy process and, therefore, a central promoter of autophagy. ULK1 itself functions in a complex with at least three protein partners: FI P200 (focal adhesion kinase family interacting protein of 200 kDa), ATG (autophagy-related protein) 13 (ATG13), and ATG101.
Cell culture and microscopy. HeLa and HEK293A cells were cultured in DMEM (Invitrogen, Carlsbad, CA, USA, 41965062) supplemented with active FBS (Life Technologies GmbH, Carlsbad, CA, USA, 10270106), 1×ABAM (Invitrogen, 15240-062) and 1 mM sodium pyruvate (Invitrogen, 1136-088). […] Proteins were detected by chemiluminescence using the Amersham Imager 600 (GE). Confocal fluorescence microscopical analyses of HEK293A cells stably expressing GFP-LC3B were performed with the laser scanning microscope LSM 710 (Zeiss, Oberkochen).

[5] = test system: C. elegans; assay: GFP-LGG-1 puncta in worms, confocal fluorescence microscopy; format: in vivo; conditions: plus/minus BafiA1; head regions of worms
Description: To further substantiate this finding we used confocal fluorescence microscopy to directly visualize autophagosomal structures, as indicated by GFP-LGG-1-positive puncta. […] In fact, a significant increase was found; autophagic flux as observed in vivo is induced by ANAVEX2-73 by approx. 2.5-fold (FIG. 37B; The number of GFP-positive autophagosomal structures (indicated by arrowheads) were counted in three independent experiments and in each experiment in at least 8-11 respective head regions of worms), which is consistent with the Western blot analysis (FIG. 37A).
C. elegans strains, maintenance, methods. C. elegans were maintained according to standard procedures on nematode growth medium (NGM) plates seeded with HB101 E. coli. The following strains were employed in this study: GFP::LGG-1 (ex[PIggI::IggI::GFP]/pRF4; maintained at 20° C.; and the strain CL2006 (dvls2 [pCL12(unc-54/human A13 peptide 1-42)+pRF4]), maintained at 15° C.
For analysis of autophagic activity, synchronous nematodes expressing GFP::LGG-1 were cultivated at 20° C. At first day of adulthood, worms were transferred to 80 μM ANAVEX2-73 or control M9 liquid culture medium for 2 h and subsequently were treated with Bafilomycin AI or DMSO (control) for 4-6 h. Thereafter worms were lysed for Western blotting or analyzed by confocal fluorescence microscopy.

[6] = test system: HeLa cells; assay: LC3-II autophagic flux, Western blot with Bafilomycin A1; format: cell-based, human; conditions: BafiA1 2 μM, vs control
Experimental: To study the effect of ANAVEX2-73 on autophagy, human HeLa cells were treated with the compound and autophagic activity was analyzed by investigating the flux of LC3-II. LC3-II is the lipidated form of LC3, which (partially) stays attached to autophagosomes and thus, gets degraded by lysosomes. Therefore, the quantification of the LC3-II flux, using Bafilomycin AI (BafiAi; 2 μM) for inhibition of lysosomal degradation, directly corresponds to cellular autophagic activity. […] There is a concentration-dependent and significant increase in the autophagic-flux following application of ANAVEX2-73: an increase of over 2-fold at 10 μM and over 1.5-fold at 1 μM ANAVEX2-73 (FIG. 35A). As standard positive control to provoke the induction of autophagy, HeLa cells were incubated with EBSS, which resembles nutrient deprivation as autophagy stimulus.
Cell culture and microscopy. HeLa and HEK293A cells were cultured in DMEM (Invitrogen, Carlsbad, CA, USA, 41965062) supplemented with active FBS (Life Technologies GmbH, Carlsbad, CA, USA, 10270106), 1×ABAM (Invitrogen, 15240-062) and 1 mM sodium pyruvate (Invitrogen, 1136-088). After medium change, the cells were treated for 2 h with 10, 1, and 0.1 μM ANAVEX2-73 and PRE-084 (Tocris, Bristol, UK, 0589), respectively; ANAVEX2-73 was provided by ANAVEX Life Sciences Corp, New York, NY, USA. Afterwards Bafilomycin A1 (Bafi.Ai; 2 μM) (Toronto Research Chemicals, North York, ON, Canada, B110000) or DMSO was added for a further 2 h and the cells were eventually harvested. Western blot analyses were performed as described previously. Briefly, cells were subjected to SDS-PAGE using precast NuPAGE 4%-12% Bis-Tris gels (Invitrogen, NP0322). Proteins were detected by chemiluminescence using the Amersham Imager 600 (GE). Confocal fluorescence microscopical analyses of HEK293A cells stably expressing GFP-LC3B were performed with the laser scanning microscope LSM 710 (Zeiss, Oberkochen).

SMILES: CN(C)CC1CCOC1(c1ccccc1)c1ccccc1.Cl (centres unmarked) [ANAVEX2-73, tetrahydro-N,N-dimethyl-2,2-diphenyl-3-furanmethanamine hydrochloride]
- number of thioflavine-positive A[342 aggregates [1]: reduced the number of thioflavine-positive A[342 aggregates
- improvement against exploratory endpoints [2]: concentration-dependent improvement against exploratory endpoints
- safety profile [2]: favorable safety profile
- affinity for Sig-1 R [3]: low micromolar range
- ULK1 serine 555 phosphorylation [4]: up to 2 fold
- induction of autophagic flux (GFP-LGG-1 puncta) [5]: approx. 2.5 fold
- increase in autophagic flux (LC3-II) ([6]; 1 μM): over 1.5 fold
- increase in autophagic flux (LC3-II) ([6]; 10 μM): over 2 fold
